The values that follow come from patent US5382582A, “Methotrexate analogs and methods of using same” (priority 1993, dated 1995).

For data set [1], the system named is human leukemia cell line K562. Kind of data set: Growth inhibition of myelogenous leukemia cells (cell counts, 120 h continuous exposure). As to conditions: for pIC50: Homo sapiens, K562 Cells, 120 hours continuous exposure. It counts as cell-based. How it is done: (§1) Two suspensious human leukemia cell lines were employed in this study. The myelogenous leukemia cell line K562 was cultured in RPMI 1640 (JRH Biosciences) containing 10% filtered fetal bovine serum (FBS; Irvine Scientific), and the lymphoblastic leukemia cell line CCRF/CEM was cultured in RPMI 1640 containing 20% FBS, 100 U/ml penicillin (GIBCO Laboratories, Grand Island, NY), and 100 μg/ml streptomycin (GIBCO). Cells were maintained at 37° C. with 5% CO2 in air, and were cultured using standard sterile tissue culture technique.
(§2) Prior to toxicity studies, cells were maintained 48 hours in the absence of added inhibitor. Logarithmically growing cells were inoculated at 1×10^4 cells/ml in tissue culture grade petri dishes (35×10 mm), and, following a suitable recovery period, were treated with chemical agents. Inhibitor concentrations ranging from 10^-12 to 10^-4 M were added to the cultures except for a control culture, which contained no added drug. Cell counts were performed by hematometer counting during 120 hours of continuous exposure to the drugs. The IC50 value was obtained by interpolation from graphs of percent growth inhibition plotted against drug concentration.

Data set [2] is described as follows: In vivo pharmacokinetics: 7-OH-MTX formed from drug in rabbit plasma. Set-up: species or system New Zealand White rabbit. Conditions: i.v., as compared with MTX. The method, then: A male New Zealand White rabbit was cannulated through the middle ear artery. A single bolus 16.7 mg/kg dose of drug was administered into the ear vein, and 1.0 ml blood samples were withdrawn from the cannulated artery into heparinized tubes at 0, 5, 15, 30, 45, 60, 75 and 90 minutes following drug administration. Plasma was separated from the samples by centrifugation at 1000 rpm, and was kept frozen until analysis.
HPLC analysis was performed as in Example 5, with the exception that the mobile phase was 0.1 M monobasic sodium phosphate and 0.1 M Tris-HCl in 20% methanol at a final pH of 6.7. p-Aminoacetophenone (10 μg/ml in water) was used as an internal standard.
Pharmacokinetic parameters were determined by the method of residual, a standard pharmacokinetic technique for resolving a curve into its various exponential components.
Thus tmax was calculated according to the formula:
tmax =2.3 log (ka /kc)/[…]

Data set [3] deals with human leukemia cell line CCRF/CEM. The data set can be described thus: Growth inhibition of lymphoblastic leukemia cells (cell counts, 120 h continuous exposure). It counts as cell-based. How it is done:
as §1, §2

The conditions of data set [4]: Tomcuf, J. Organic Chem., 26, 3351 (1961); cited from earlier work.
The conditions of data set [5]: high dose regimen; Barak et al. (1984); cited from earlier work.
Data set [6] is described as follows: Formation of 7-OH-MTX (7-hydroxylation) in rabbit liver homogenate. As to conditions: as compared with MTX. The method, then: (§3) For these experiments, freshly isolated liver from a New Zealand white rabbit was homogenized in 400 ml of cold buffer of pH 7.6 consisting of 10 mM Tris-HCl, 25 mM sucrose and 10 mMMgCl2. The homogenate was centrifuged at 1000× g for 20 minutes at 4° C. and the resulting pellet was resuspended in about 14 ml of the same buffer. […] Two ml samples of the homogenate were removed at 10 minute intervals. Samples were boiled 5 minutes to denature proteins, and then centrifuged to pellet cell debris. […] For HPLC analysis, a Perkin-Elmer 410 LC solvent delivery system and a 5-μm IBM ODS column (4.1×250 mm) with a C18 Guard column were employed. The mobile phase consisted of 0.1 M monobasic sodium phosphate and 0.1 M Tris-HCl in 27% methanol at a final pH of 7.6. […] Detector output was recorded and integrated by a Perkin-Elmer LCI 100 integrator.

A short description of data set [7]: Half-life in rabbit liver homogenate. How it is done: as §3, with “employed.” for “employed. The mobile phase consisted of 0.1 M monobasic sodium phosphate and 0.1 M Tris-HCl in 27% methanol at a final pH of 7.6.”
The conditions of data set [8]: Rosowsky and Chen, J. Med. Chem., 18, 1308-11 (1974); cited from earlier work.
For data set [9] the following is noted: man and monkeys; Borsi et al. (1990), Jacobs et al. (1976); cited from earlier work.

Each structure is given as a SMILES string. pIC50: −log10 of the molar value.

`[2H]c1nc2nc(N)nc(N)c2nc1C([2H])([2H])N(C)c1ccc(C(=O)N[C@@H](CCC(=O)O)C(=O)O)cc1` (racemic) [7,9,9-d3 -MTX, N-[p-[N-(2,4-diamino-7-deutero-6-pteridinyldideuteromethyl)-N-methylamino]benzoyl]glutamic acid] showed a pIC50 in data set [1] of 7.40. Besides, in data set [1] (K562 and CCRF/CEM cells, D,L-racemate), the “IC50 compared with IC50 of MTX” value is given as “greater than the IC50 values obtained for MTX”. In addition, in data set [2], the “Peak level of 7-OH-MTX less than that obtained from MTX by” value is listed as “about 70%” and the “Time to achieve 7-OH-MTX peak level as compared to that of MTX” value is on record as “more than twice as long”. Moreover, the pIC50 in [3] is 7.32.

`CN(Cc1cnc2nc(N)nc(N)c2n1)c1c(F)cc(C(=O)N[C@@H](CCC(=O)O)C(=O)O)cc1F` [3', 5'-difluoro MTX]: in data set [4], the “Biological activity as compared with MTX” value is reported as “little or no increase in biological activity as compared with MTX”.

In the case of `CN(Cc1nc2c(N)nc(N)nc2nc1O)c1ccc(C(=O)N[C@@H](CCC(=O)O)C(=O)O)cc1` [7-OH-MTX, 7-hydroxymethotrexate], the “Toxicity” value in [5] was “the source of this toxicity”.

As to `[2H]c1nc2nc(N)nc(N)c2nc1CN(C)c1ccc(C(=O)N[C@@H](CCC(=O)O)C(=O)O)cc1` [7-d-MTX, N-{p-[N-(2,4-diamino-7-deutero-6-pterridinylmethyl)-N-methylamino]benzoyl}-L -glutamic acid], the “Less 7-OH-MTX formed per unit time than from MTX” value in data set [6] is recorded as “about 70%”. Also, the values for the negative logarithm of the IC50 (pIC50) in [1] and in data set [3] were 8.22 and 8.02, respectively. In addition, the “IC50 lower than IC50 of MTX by” value in [1] (K562 and CCRF/CEM cells, as compared with MTX) is recorded as 15-25%. In addition, the “Half-life greater than half-life for MTX by” value in [7] (rabbit liver homogenate, as compared with MTX) is “about 60%”.

Turning to `Cc1nc2nc(N)nc(N)c2nc1CN(C)c1ccc(C(=O)N[C@@H](CCC(=O)O)C(=O)O)cc1` [7-methyl substituted MTX], the “Antifolate antagonism” value in data set [8] is given as “impaired antifolate antagonism”.

On to `CN(Cc1cnc2nc(N)nc(N)c2n1)c1ccc(C(=O)N[C@@H](CCC(=O)O)C(=O)O)cc1` [MTX, N-[4-[[(2,4-diamino-6pteridinyl)methyl]methylamino]benzoyl]-L-glutamicacid, reference compound], for which the “Toxicity” value in data set [5] is “associated with renal and hepatic toxicity”. In addition, the pIC50 in data set [1] was 8.10; in data set [3], 7.95. Also, the Half-Life in [7] (rabbit, liver homogenate, pH 7.6) was determined as 28.2 min. In addition, the “Conversion in vivo to 7-OH-MTX” value in data set [9] is “converted in vivo to 7-hydroxymethotrexate (7-OH-MTX)”.
